One molecule from US20220291217A1, “GASTRIC CANCER MARKER AND EXAMINATION METHOD USING SAME” (JAPANESE FOUNDATION FOR CANCER RESEARCH, priority 2019, published 2022) can be followed below.

This test concerns SNU-1 cells. Nature of the test: Staurosporine-induced apoptosis, Annexin V/7AAD flow cytometry. It is filed as cell-based, human. The conditions noted are these: staurosporine 1.0 μM. As to the method:
Staurosporine (STS), a kinase inhibitor, was added to the above cells at 1.0 μM to induce apoptosis (FIG. 4b). Apoptosis was detected with Annexin V, 7AAD kit (BD Bioscience), and analyzed by flow cytometry, BD FACSCalibur (BD Bioscience).
(Flow cytometry measures light scatter and fluorescence of single cells or particles in a stream.)

For the molecule `CN[C@@H]1C[C@H]2O[C@@](C)([C@@H]1OC)n1c3ccccc3c3c4c(c5c6ccccc6n2c5c31)C(=O)NC4` [staurosporine, Staurosporine], the “cells in which apoptosis is induced” value (SNU-1 cells that do not express CA1, within 3 hours) was 19.3%. Further, the “cells in which apoptosis was induced” value (SNU-1 cells with forcedly expressed 3'-FLAG-tagged CA1) is 6.1%.
